{"source": "patent US7071179B2", "about": "“Method of locking 1α-OH of vitamin D compounds in axial orientation” (Wisconsin Alumni Research Foundation, priority 1998, dated 2006)", "key": {"[1]": {"test": "biological testing of 10,19-dihydrovitamin D3 compounds, in vivo biological response", "conditions": "compared among the 1α,25-dihydroxy-10,19-dihydrovitamin D3 compounds tested"}, "[2]": {"system": "intestinal calcium transport", "test": "intestinal calcium transport activity", "conditions": "in vivo"}}}
{"smiles": "CC(CCCC(C)(C)O)C1CCC2C(=CC=C3CC(O)CC(O)C3C)CCCC21C", "note": "[1α,25-dihydroxy-10(S), 19-dihydrovitamin D3]", "values": [{"measurement": "in vivo biological response", "setting": "[1]", "result": "greatest in vivo biological response"}, {"measurement": "activity on intestinal calcium transport", "setting": "[2]", "result": "very significant activity"}]}
